Values quoted from earlier work, collected in paper PMC9899610 (Cancer Science, 2022).
Read-outs that look alike come from different tables or passages of the source.

Tested on: patients with advanced or metastatic cholangiocarcinoma; urothelial carcinoma
Details: cited from earlier work
[1] = patients with advanced or metastatic cholangiocarcinoma

SMILES	Hyperphosphatemia, patients (patients with urothelial carcinoma) [%]	Patients who discontinued treatment because of retinal detachment (phase II study) [%]	Retinal AEs requiring dose interruption or treatment discontinuation	Hyperphosphatemia, patients [1] [%]
COc1cc(OC)cc(N(CCNC(C)C)c2ccc3ncc(-c4cnn(C)c4)nc3c2)c1 [erdafitinib]	77	13		
CCN1C(=O)N(c2c(F)c(OC)cc(OC)c2F)Cc2cnc3[nH]c(CN4CCOCC4)cc3c21 [pemigatinib]			one dose interruption	60
CCN1CCN(c2ccc(Nc3cc(N(C)C(=O)Nc4c(Cl)c(OC)cc(OC)c4Cl)ncn3)cc2)CC1 [infigratinib]			two discontinuations	77
